Test results reported in article PMC7822874, “Chemoprotective antimalarials identified through quantitative high-throughput screening of Plasmodium blood and liver stage parasites” (Scientific Reports, 2021).
Like-named read-outs stand apart in the source and are kept apart here.

What was measured:
[1] = in vitro; settings: human, hepg2 cells
[2] = tested on: Plasmodium falciparum Dd2 asexual blood stage parasites; assay: microbe, parasite or virus in culture; parameters: species or system Plasmodium falciparum Dd2 in human erythrocytes; single determination (one 11-point concentration-response curve); settings: Plasmodium falciparum, DD2, Erythrocyte, 72 h
[3] = tested on: HepG2; settings: human, hepg2 cells, 48 h

| Log AC50 (M) [3] [M] | Structure (SMILES) | CC50 at 48 h [1] [µM] | AC50 ([2]; read-out: AC50) [µM] | AC50 [2] [µM] |
| --- | --- | --- | --- | --- |
| -4.3643 | Cc1ccc(Oc2c(C)[nH]c(-c3ccccc3)nc2=O)cc1 [MLS000851017-01] | 43.2 | 5.31 |  |
| -4.9643 | O=C(Nc1nnc(SCc2ccc(F)cc2)s1)c1ccccn1 [MLS001003501-01] | 10.9 | 8.41 |  |
| -4.3643 | CC(Sc1nc2ccccc2c(=O)n1C)C(=O)N(C)C1CCCCC1 (stereo not drawn) [MLS001098006-01] | 43.2 | 5.31 |  |
| -4.4643 | CCN(CC)CCNC(=O)c1ccc(NC(=O)c2ccc(S(=O)(=O)N3CCCCCC3)cc2)cc1 [MLS001157553-01] | 34.3 | 8.41 |  |
| -4.5143 | COc1ccc2nc(C)cc(NCc3cccc(C(F)(F)F)c3)c2c1 [MLS001174340-01] | 30.6 | 2.11 |  |
| -4.8143 | Cc1nc(-c2ccccn2)nc(N(C)c2ccccc2)c1Cl [MLS001182279-01] | 15.3 | 5.31 |  |
| -4.9143 | CN(C)CCCNc1c2ccccc2nc2ccccc12 [MLS001198528-01] | 12.2 | 4.22 |  |
| -4.4643 | CN(C)CCNC(=O)c1cc2c(s1)-c1ccc(Cl)cc1SC2 [MLS001198989-01] | 34.3 | 13.3 |  |
| -4.6143 | CCOc1ccc(NS(=O)(=O)c2csc(C(N)=O)c2)cc1 [MLS001199948-01] | 24.3 | 7.5 |  |
| -4.5143 | CCN(CC)CCNC(=O)c1ccc(NC(=O)c2cn(-c3ccc(F)cc3)nc2-c2cccc(OC)c2)cc1 [MLS001233779-01] | 30.6 | 9.44 |  |
| -4.3643 | COc1cc(Cl)c(NC2=CC(=O)C(=O)c3ccccc32)c(OC)c1 [MLS001360325-01] | 43.2 | 1.68 |  |
| -4.3643 | O=C1NCN(c2ccccc2)C12CCN(CCCC(c1ccc(F)cc1)c1ccc(F)cc1)CC2 [NCGC00015424-04] | 43.2 | 5.31 |  |
| -4.6643 | CC(C)(C)CC(C)(C)c1ccc(O)c(Cc2ccc(Cl)cc2Cl)c1 [NCGC00095016-01] | 21.7 | 1.68 |  |
| -4.3643 | CCN1CCN(c2cc(C)c3cc(NC(=O)/C=C/c4ccc(C)cc4)ccc3n2)CC1 [NCGC00103850-01] | 43.2 | 4.22 |  |
| -4.5143 | CCN1CCN(c2cc(C)c3cc(NC(=O)/C=C/c4ccc(OCCC(C)C)cc4)ccc3n2)CC1 [NCGC00103856-01] | 30.6 | 2.11 |  |
| -4.4643 | COc1ccc(/C=C/C(=O)Nc2ccc3nc4c(c(Nc5ccccc5OC)c3c2)CCCC4)cc1 [NCGC00104041-01] | 34.3 | 3.35 |  |
| -4.4143 | CCN(CC)CCCNC(=O)c1ccc2c(c1)N(Cc1c(F)cccc1Cl)C(=O)c1ccccc1S2 [NCGC00108146-01] | 38.5 | 0.944 |  |
| -4.3143 | CCN(CC)CCOC(=O)c1ccc(NC(=O)c2cc3c(=O)n(CC)c4ccccc4c3s2)cc1 [NCGC00110417-01] | 48.5 | 2.66 |  |
| -4.5643 | COc1cc(C2CC(=O)N(Cc3ccc(F)cc3)c3ccccc3S2)cc(OC)c1OC (stereo not drawn) [NCGC00112401-01] | 27.3 | 2.11 |  |
| -4.5143 | O=C(c1n[nH]c2c1CCCC2)N1CCC(n2cc(-c3nc(-c4ccccc4)no3)nn2)CC1 [NCGC00454851-01] | 30.6 |  |  |
| -4.3643 | COc1ccc(C(=O)N2CCC(n3cc(-c4nc(-c5ccccc5)no4)nn3)C2)cc1 (stereo not drawn) [NCGC00455125-01] | 43.2 |  |  |
| -4.4643 | Cc1nc(N2CCC(NC(=O)c3cc4ccccc4[nH]3)CC2)cc(C(F)(F)F)n1 [NCGC00455533-01] | 34.3 |  |  |
| -4.4643 | Cc1ccc(NC(=O)C2CCN(c3cc(C(F)(F)F)ncn3)CC2)cc1 [NCGC00455557-01] | 34.3 |  |  |
| -4.4643 | CCc1ccc(NC(=O)C2CCN(c3cc(C(F)(F)F)ncn3)CC2)cc1 [NCGC00455558-01] | 34.3 |  |  |
| -4.5143 | Cc1nc(C)c(C(=O)N2CC(Oc3ccc(-c4noc(-c5ccccc5)n4)cc3)C2)s1 [NCGC00458037-01] | 30.6 |  |  |
| -4.5643 | O=C1CCN(Cc2ccc(C(F)(F)F)cc2)CCCC(c2nc(-c3cccnc3)no2)CCN1 (stereo not drawn) [NCGC00465921-01] | 27.3 |  |  |
| -4.9143 | O=C1CCN(Cc2ccc(F)cc2F)CCCC(c2nc(-c3cnccn3)no2)CCN1 (stereo not drawn) [NCGC00465975-01] | 12.2 |  |  |
| -4.8643 | CCc1nnc([C@@H]2CC(F)(F)CN2Cc2cccn2C)o1 [NCGC00468656-01] | 13.7 |  |  |

Further lines, the molecule ahead of its results:

| Structure (SMILES) | Log AC50 (M) [3] [M] | CC50 at 48 h [1] [µM] | AC50 ([2]; read-out: AC50) [µM] | AC50 [2] [µM] |
| --- | --- | --- | --- | --- |
| COc1ccc(NC(=O)c2ccc(Cl)c(S(=O)(=O)N3CCc4ccccc4C3)c2)cn1 [MLS000057537-01] | -4.4643 | 34.3 | 7.5 |  |
| CCN(CC)CCNc1ccnc2cc(Cl)ccc12 [MLS000066547-01] | -4.5143 | 30.6 | 0.211 |  |
| Cc1ccc(CNCc2cc3c(C(C)(C)C)nn(-c4ccccc4)c3[nH]c2=O)cc1 [MLS000067257-01] | -4.3643 | 43.2 | 0.266 |  |
| CCCCNc1cc(C)nc(NCc2ccccc2)n1 [MLS000078573-01] | -4.4643 | 34.3 | 9.44 |  |
| C=C(C)COc1ccc(-c2n[nH]c(C)c2-c2ccccc2)c(O)c1 [MLS000083081-01] | -4.3643 | 43.2 | 4.73 |  |
| COc1ccc(-[n+]2c(-c3ccc(Br)cc3)cn3c2CCc2ccccc2-3)cc1.[Br-] [MLS000391920-01] | -4.3643 | 43.2 | 4.22 |  |
| O=C(O)c1ccccc1.OC(CNCC1CCCO1)Cn1c2ccc(Cl)cc2c2cc(Cl)ccc21 (stereo not drawn) [MLS000525403-01] | -4.4143 | 38.5 | 1.19 |  |
| CCCCC(=O)NC(c1cccc([N+](=O)[O-])c1)c1c(OC(C)=O)ccc2ccccc12 (stereo not drawn) [MLS000527046-01] | -4.3643 | 43.2 | 3.76 |  |
| O=C(c1cc(NC(=O)C23CC4CC(CC(C4)C2)C3)cc(NC(=O)C23CC4CC(CC(C4)C2)C3)c1)N1CCCCC1 [MLS000549502-01] | -4.3643 | 43.2 | 5.96 |  |
| Cc1cc(NC2CCCCC2)nc(NCc2ccccc2)n1 [MLS000555549-01] | -4.4643 | 34.3 | 16.8 |  |
| Cc1cc(NCc2ccccn2)n2nc(C)c(-c3ccccc3)c2n1 [MLS000559925-01] | -5.9643 | 1.09 | 13.3 |  |
| CCOc1ccc2nc(C)cc(Nc3ccc4c(c3)OCCO4)c2c1 [MLS000575119-01] | -4.4143 | 38.5 | 6.68 |  |
| O=C(Nc1ccc([N+](=O)[O-])cc1)Nc1ccc(OC(F)F)c(Cl)c1 [MLS000581434-01] | -4.5143 | 30.6 | 2.66 |  |
| Cc1cc(Nc2ccc(Cl)cc2)nc(NCc2ccccc2)n1 [MLS000591025-01] | -4.3643 | 43.2 | 0.422 |  |
| Fc1cccc(NC(S)=NNc2c3ccccc3nc3ccccc23)c1 [MLS000660813-01] | -6.0143 | 0.968 | 15 |  |
| Cc1ccc2nc(C)cc(Nc3ccc([N+](=O)[O-])cc3)c2c1 [MLS000710716-01] | -4.3643 | 43.2 | 6.68 |  |
| CCCCC(=O)NC(c1ccccc1OC)c1ccc2cccnc2c1O (stereo not drawn) [MLS000715346-01] | -4.7643 | 17.2 | 5.31 |  |
| COc1ccc(/C=N/Nc2nc(Nc3ccccc3)nc(N3CCCC3)n2)cc1[N+](=O)[O-] [MLS000723644-01] | -4.5643 | 27.3 | 6.68 |  |
| O=C(Nc1ccc(Nc2ccncc2)cc1)c1ccc(Nc2ccnc3ccc([N+](=O)[O-])cc23)cc1[N+](=O)[O-] [MLS000756458-01] | -4.5643 | 27.3 |  | 1.33 |
| Oc1cccc(C(Nc2nccs2)c2ccc3cccnc3c2O)c1 (stereo not drawn) [MLS000760926-01] | -4.4143 | 38.5 | 7.5 |  |
| CC1CCCN(Cc2c(O)ccc3c4c(c(=O)oc23)CCCC4)C1 (stereo not drawn) [MLS000778333-01] | -4.9143 | 12.2 | 6.68 |  |
| O=C(Nc1ccc(C(F)(F)F)cc1)N1CCN(c2ccnc3cc(Cl)ccc23)CC1 [MLS000830170-01] | -4.6143 | 24.3 | 5.31 |  |
| FC(F)(F)c1cnc(N2CCCN(C(S)=Nc3ccccc3)CC2)c(Cl)c1 [MLS000833545-01] | -4.3643 | 43.2 | 4.73 |  |
| COc1cc2nc(N3CCN(c4cc(C)ccc4C)CC3)nc(N)c2cc1OC.Cl [MLS001199642-01] | -4.3643 | 43.2 | 6.68 |  |
| CCN(CC)CCn1c(=N)n(CC(O)COc2ccccc2C)c2ccccc21 (stereo not drawn) [NCGC00101835-01] | -4.5643 | 27.3 | 3.35 |  |
| Cc1cc(OCCn2cc(C(=O)c3ccco3)c3ccccc32)ccc1Cl [NCGC00101880-01] | -4.8143 | 15.3 | 5.31 |  |
